The text below walks through data of patent US10150793B2, “Antagonists of CB1 receptor” (INSERM (Institut National de la Santé et de la Recherche …, priority 2011, dated 2018).

“Also recorded” adds a separate entry of the source.

The target of data set [1] is T1, CB1 receptor (Rattus norvegicus, UniProt P20272). The experiment in a line: THC-induced increase in food intake in ad libitum fed Wistar rats. It is filed as in vivo. Details: tissue Charles River Laboratories (France) (animals); host or cells: living Wistar rats, whole animal. The note with it: THC 0.5 mg/kg; 17-methylpregnenolone 8 mg/kg sc. The procedure: (§1) Food intake was evaluated by measuring consumption of food in the home cages of the animals. For each animal, 50-100 g of standard laboratory chow (U.A.R., France) was placed in the cleaned home cage. The remaining amount of food was weighted 1 h later and the amount of food consumed calculated.
T1 sequence (P20272 whole entry): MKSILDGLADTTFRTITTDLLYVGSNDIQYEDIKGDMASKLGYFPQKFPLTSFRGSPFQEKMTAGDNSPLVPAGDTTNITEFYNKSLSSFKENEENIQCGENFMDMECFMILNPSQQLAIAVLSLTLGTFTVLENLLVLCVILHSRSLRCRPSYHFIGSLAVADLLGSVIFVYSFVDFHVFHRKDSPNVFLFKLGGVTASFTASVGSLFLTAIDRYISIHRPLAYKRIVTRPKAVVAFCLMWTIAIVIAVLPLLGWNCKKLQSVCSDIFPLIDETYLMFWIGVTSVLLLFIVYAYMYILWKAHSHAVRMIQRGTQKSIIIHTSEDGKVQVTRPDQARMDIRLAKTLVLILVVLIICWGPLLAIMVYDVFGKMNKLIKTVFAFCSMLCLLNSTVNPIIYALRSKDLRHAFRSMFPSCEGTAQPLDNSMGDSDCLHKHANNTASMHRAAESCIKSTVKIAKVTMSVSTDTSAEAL

A further data set relates to TNF-α. In words: Increase in plasma TNF-alpha induced by LPS. It is filed as in vivo, mice. The following applies: Mus musculus; mice; compounds 6 mg/kg 15 min before LPS. The procedure: Trunk blood was collected and centrifuged at 3000 rpm for 15 min at 4° C. Plasma was stored at −80° C. until measurement of TNFα was carried out. Plasma TNFα levels were assessed using an ELISA kit, following the manufacturer's instructions (Fisher Scientific, Catalog #E6473C).
In this example the inventors further analyzed the ability of pregnenolone to inhibit the effects of CB1 activation in the context of inflammation and fibrosis. […] TNF-alpha is one of the cellular responses to inflammatory stimuli more involved in promoting fibrosis.
(§2) Other pregnenolone derivatives (Table 4) for which the metabolism in downstream active steroids was reduced were tested for their ability to inhibit: 1. effects of the THC-induced cannabinoid tetrade (decrease in body temperature and in locomotor activity, (THC 10 mg/kg, compounds 6 mg/kg 15-30 min before THC) that is recognized as a sound method to evaluate the activation of the CB1 receptor; 2. THC-induced increase in food intake a typical effect of CB1 activation (THC between 0.5 and 1 mg/kg, compounds between 2 and 4 mg/kg 30 min before THC); 3. the increase in TNFalpha induced by LPS, another effects typical of CB1 […] (compounds 6 mg/kg 15 min before LPS). For each compound and each test independent groups of animals were used (at least n=6 per compound/per test).

Data set [2] deals with T2, CB1 receptor (Mus musculus, UniProt P47746). In words: Food intake in 24 h-food deprived mice (fasting/refeeding). Details: tissue Charles River Laboratories (France) (animals); host or cells: living mice, whole animal. Format: in vivo, C57B1/6 mice. The note with it: no THC; for first statistically significant dose for decrease of food intake: food-deprived (food-restricted) mice; for effect on food intake in 24 h-food deprived mice: food intake over 1 h.
T2 sequence (P47746 whole entry): as the sequence (P20272 whole entry) above, with E95D counted along it

The nature of data set [3]: Allopregnanolone and epiallopregnanolone in nucleus accumbens after high dose injection (GC/MS). Format: in vivo, Wistar rats. The note with it: 50 mg/kg; 30 min after the injections. On the procedure: The capacity of a compound of the invention to be or not to be converted into active pregnenolone downstream derivatives may be evaluated by administering this compound, for example by injecting 50 mg/kg, to a rat, sacrificing the rat 30 min later, measuring the concentration of allopregnanolone and epiallopregnanolone in nucleus accumbens of rat by GC/MS and comparing these concentrations to allopregnanolone and epiallopregnanolone in a rat whose has been injected only a vehicle or pregnenolone.
The concentrations of allopregnanolone and epiallopregnanolone were measured in nucleus accumbens of individual animal by GC/MS 30 min after the injections.

Data set [4] concerns the target T2, CB1 receptor. The experiment in a line: THC-induced increase in food intake in mice. Format: in vivo. Further details: tissue Charles River Laboratories (France) (animals); host or cells: living mice, whole animal. The note with it: for effect on THC-induced increase in food intake (hyperphagia) in mice: 24 h-food deprived C57B1/6 mice, THC 1 mg/kg, compound 2 mg/kg sc; for % Inhibition of THC-Induced food intake: mice, THC between 0.5 and 1 mg/kg, compounds between 2 and 4 mg/kg 30 min before THC. The procedure:
as §1, §2

A further data set relates to CHO cells. The experiment in a line: Study of metabolism in vitro in CHO cells, steroids in culture medium by GC/MS. The note with it: CHO cells. On the procedure:
(§3) Plasma, brain and culture medium levels of pregnenolone (5-Pregnen-3β-ol-20-one), allopregnanolone (3α-hydroxy-5α-pregnan-20-one), epiallopregnanolone (3β-hydroxy-5α-pregnan-ol-20-one), testosterone, and 5α dihydrotestosterone were determined by GC/MS according to the of estraction, purification and quantification protocol described previously (George O, et al., Biol Psychiatry. 2010 68: 956-63, Vallee M, et al., Anal Biochem. 2000, 287:153-66).
The CHO-K1 cell line (#CCL-61, ATCC-LGC, USA) derived as a subclone from the parental CHO cell line initiated from a biopsy of an adult Chinese hamster ovary was used. The CHO-K1 cells were seeded on 24-well plates (#353047, BD Biosciences, USA) to the appropriate concentration (25×10^4 cells/well) in fresh, antibiotic-free medium constituted by 90% DMEM-Glutamax; (#31966-21, Life technologies, USA) and 10% Fetal Bovine Serum (#10270-106, Life technologies, USA).
In this example the inventors further analyzed the metabolism of pregnenolone derivatives using an in vitro test in CHO cells. These cells derived from the ovary have all the enzymes needed to metabolize pregnenolone in down stream steroids.

For data set [5], the target named is T2, CB1 receptor. In words: THC-induced cannabinoid tetrad (body temperature, locomotor activity, catalepsy, analgesia). Format: in vivo, mice. Further details: tissue Charles River Laboratories (France) (animals); host or cells: living mice, whole animal. The following applies: mice; THC 10 mg/kg; compounds 6 mg/kg 15-30 min before THC.
The next data set has as its system GABA-A receptors. The experiment in a line: GABA-A receptors-mediated mIPSC in nucleus accumbens principal neurons. It is filed as cell-based, mouse. The procedure:
GABA-A receptors-mediated currents: mIPSC were recorded in the presence of the AMPAR and NMDAR antagonists (DNQX 20 μM and AP-5 50 μM, respectably). mEPSC-mIPSC analysis: Typically, after breaking in, cells were left to equilibrate for 20 minutes and the subsequent 10 minutes recording of mEPSC-mIPSC was used to analysis. mEPSC-mIPSC were detected using a template generated from averaging several typical events (Clampfit 10, Molecular Devices). The template was slid along the data trace one point at a time. At each position, the template was optimally scaled and offset to fit the data. A lower-amplitude threshold of 7 pA and 10 pA were applied for mEPSC and mIPSC, respectably, equivalent to 2.5SD of baseline noise. For each cell, the kinetics of mEPSC-mIPSC was measured from the average event using Clampfit 10. To estimate decay times, a two exponentials curve was fitted between 5 and 95% of the decay phase of the current given by the following equation: y(t)=A1·e^(−t/τ1)+A2·e^(−t/τ2), where A is the amplitude, t is the time and τ is the decay time constant. The weighted tau was then calculated.
In order to evaluate the effect of pregnenolone on the function of post-synaptic GABA we recorded mIPSC and compared its amplitude and decay time between groups. We observed that mIPSC amplitude and decay time were similar between controls (amplitude: 17.9±0.8 pA; decay time: 11.1±0.3 ms) and slices pre-treated with pregnenolone (100 nM and 1 μM, respectively; amplitude: 17.3±0.4 pA, 15.9±0.4 pA; decay time: 10.2±0.4 ms, 10.8±0.5 ms).

Data set [6] concerns the target T1, CB1 receptor. The experiment in a line: Pregnenolone concentrations in the brain after drugs of abuse and CB1 ligands (GC/MS). Details: tissue Charles River Laboratories (France) (animals); host or cells: living Wistar rats, whole animal. Format: in vivo, Wistar rats. The note with it: rats, n=6-12 per group. The procedure: as §3
In this example the inventors analyzed the effects of the injection of the principal drugs of abuse on the production of pregnenolone in male Wistar rats. […] For example, in the brain, starting from pregnenolone two parallel enzymatic cascades allow producing on one hand allopregnanolone and its stereoisomer epiallopregnanolone and on the other testosterone and its metabolite DHT. These brain steroids were quantified using GC-MS, the only technique able to differentiate their subtle structural differences. […] Concentrations of neurosteroids were analyzed 15, 30 and 120 min after the injection in several ascending brain structure, the ventral midbrain the hypothalamus, the striatal complex and the frontal cortex.
The example provides data obtained in the plasma and in several brain structures: frontal cortex (FCX); nucleus accumbens (ACC); striatum (STR); hypothalamus (HYP).
The effects of THC in the brain are mediated by a family of G-protein-coupled seven membrane receptors (GCPR) and principally by the CB1 and CB2 receptors.

As a reminder, the inhibition in vivo is the drop in the measured response relative to a control, in per cent. The low end stands for a weak effect, the high end for a strong effect. For `CC(=O)C1CCC2C3CC=C4C[C@@H](F)CC[C@]4(C)C3CC[C@]12C` (stereo partly drawn) [Compound 1, 3β-Fluoropregnenolone], on CB1 receptor [1], the “effect on increase in food intake induced by THC in ad libitum fed Wistar rats” value (from here on “effect on increase”) is “non statistically significant trend to decrease”. The compound also yielded an inhibition in vivo at 6 mg/kg in the data set on TNF-α of 58%. Moreover, on CB1 receptor [2], the “first statistically significant dose for decrease of food intake” value stood at 6 mg/kg and the “effect on food intake in 24 h-food deprived mice” value (shortened to “effect on food intake”) is “dose-dependently decreased food intake”. Also, the “production of allopregnanolone and epiallopregnanolone in nucleus accumbens” value (“production” for short) in data set [3] is given as “None of the modified pregnenolone derivatives”. At CB1 receptor [4], the “effect on THC-induced increase in food intake (hyperphagia) in mice” value (“effect on THC-induced increase” for short) is recorded as “decreased THC-induced hyperphagia” and the “% Inhibition of THC-Induced food intake” value is listed as ≥100%, P < 0.01. Also, in the data set on CHO cells, the “metabolism in downstream active steroids (Reduced metabolism / Metabolized)” value (“metabolism … (Reduced metabolism / Metabolized)” for short) was “Reduced metabolism”.

For `CC(=O)[C@@]1(C)CCC2C3CC=C4C[C@@H](O)CC[C@]4(C)C3CC[C@@]21C` (stereo partly drawn) [Compound 2, 17α-Methylpregnenolone], at CB1 receptor [1], the “effect on increase” value was “significantly reduced; also recorded: decrease significantly the increase in food intake induced by THC in rats”. Besides, in the data set with TNF-α, testing at 6 mg/kg gave an inhibition in vivo of 60%. For the same compound, at CB1 receptor [2], the “first statistically significant dose for decrease of food intake” value is listed as 4 mg/kg and the “effect on food intake” value is listed as “dose-dependently decreased food intake”. In data set [3], the “production” value is “None of the modified pregnenolone derivatives”. At CB1 receptor [4], the “effect on THC-induced increase” value was “decreased THC-induced hyperphagia” and the “% Inhibition of THC-Induced food intake” value is ≥100%, P < 0.001. Besides, on CB1 receptor [4] (dose response in 24 h-food deprived mice, 0.5 mg/kg dose was ineffective), the “dose inhibiting THC-induced increase in food-intake (first effective dose)” value stood at 1 mg/kg. In addition, on CB1 receptor [5], the “% Inhibition temperature decrease” value was 43%, P < 0.001 and the “% increase in motor activity” value is on record as 240%, P < 0.01. Also, the “metabolism … (Reduced metabolism / Metabolized)” value with CHO cells is reported as “Reduced metabolism”.

Take `CC(=O)[C@@]1(C)CCC2C3CC=C4C[C@@H](F)CC[C@]4(C)C3CC[C@@]21C` (stereo partly drawn) [Compound 3, 3β-Fluoro-17α-methylpregnenolone]: the “effect on increase” value on CB1 receptor [1] was “non statistically significant trend to decrease”. Besides, on CB1 receptor [2], the “first statistically significant dose for decrease of food intake” value is 6 mg/kg and the “effect on food intake” value was “dose-dependently decreased food intake”. In addition, the “production” value in [3] is recorded as “None of the modified pregnenolone derivatives”. Further, at CB1 receptor [4], the “effect on THC-induced increase” value is “decreased THC-induced hyperphagia” and the “% Inhibition of THC-Induced food intake” value is ≥100%, P < 0.01. In the data set with CHO cells, the “metabolism … (Reduced metabolism / Metabolized)” value is listed as “Reduced metabolism”.

Turning to `CC(=O)[C@H]1CCC2C3CC[C@@H]4C[C@@H](O)CC[C@]4(C)C3CC[C@@]21C` (stereo partly drawn) [Compound 46, 5α-Pregnan-3α-ol-20-one (Allopregnanolone), reference compound], in the data set with GABA-A receptors (slices pre-treated with 100 nM), the mIPSC amplitude is 15.9±0.5 pA and the mIPSC decay time turned out to be 13.6 ± 0.7 ms. For the same compound, in the data set with GABA-A receptors (slices pre-treated with 1 μM), the mIPSC amplitude was found to be 20.2±1.2 pA and the mIPSC decay time came out at 22.7 ± 2.3 ms. Besides, the “metabolism … (Reduced metabolism / Metabolized)” value in the data set on CHO cells is listed as “Metabolized”.

With `CC(=O)[C@H]1CCC2C3CC=C4CC(N=[N+]=[N-])CC[C@]4(C)C3CC[C@@]21C` (stereo partly shown) [Compound 72, 3-Azidopregnenolone], the inhibition in vivo at 6 mg/kg in the data set with TNF-α came to 61%. The “% Inhibition of THC-Induced food intake” value at CB1 receptor [4] is on record as ≥100%, P < 0.001. On CB1 receptor [5], the “% Inhibition temperature decrease” value was 34%, P < 0.05 and the “% increase in motor activity” value is given as 145%, P < 0.05. Moreover, the “metabolism … (Reduced metabolism / Metabolized)” value in the data set on CHO cells is on record as “Reduced metabolism”.

Turning to `CC(=O)[C@H]1CCC2C3CC[C@@H]4C[C@@H](O)CC[C@]4(C)C3CC[C@@]21C` (stereo partly drawn) [Compound 77, 5β-Pregnan-3β-ol-20-one (Epipregnanolone)], at 6 mg/kg the inhibition in vivo in the data set on TNF-α was 76%. On CB1 receptor [4], the “% Inhibition of THC-Induced food intake” value is recorded as ≥100%, P < 0.01. In addition, on CB1 receptor [5], the “% Inhibition temperature decrease” value was 70%, P < 0.0001 and the “% increase in motor activity” value is 177%, P < 0.02. Besides, in the data set with CHO cells, the “metabolism … (Reduced metabolism / Metabolized)” value was “Reduced metabolism”.

As to `CCCCCCC(C)(C)c1cc(O)c2c(c1)OC(C)(C)[C@@H]1CC=C(CO)C[C@@H]21` [HU210], the “effect of CB1/CB2 agonists on pregnenolone concentrations” value at CB1 receptor [6] is given as “induced a significant increase in pregnenolone”.

As to `CCCC(C)(C)c1ccc2c(c1)OC(C)(C)[C@@H]1CC=C(C)C[C@@H]21` [JWH, 133], the “effect of CB1/CB2 agonists on pregnenolone concentrations” value on CB1 receptor [6] was “much lower and not significant effects”.
